Laboratory results published in patent US12612360B2 (Sanofi, priority 2020, dated 2026).

Biological target: T1, ERα (Homo sapiens, UniProt P03372)
T1 construct: host or cells: MCF7
T1 sequence (P03372 1-595): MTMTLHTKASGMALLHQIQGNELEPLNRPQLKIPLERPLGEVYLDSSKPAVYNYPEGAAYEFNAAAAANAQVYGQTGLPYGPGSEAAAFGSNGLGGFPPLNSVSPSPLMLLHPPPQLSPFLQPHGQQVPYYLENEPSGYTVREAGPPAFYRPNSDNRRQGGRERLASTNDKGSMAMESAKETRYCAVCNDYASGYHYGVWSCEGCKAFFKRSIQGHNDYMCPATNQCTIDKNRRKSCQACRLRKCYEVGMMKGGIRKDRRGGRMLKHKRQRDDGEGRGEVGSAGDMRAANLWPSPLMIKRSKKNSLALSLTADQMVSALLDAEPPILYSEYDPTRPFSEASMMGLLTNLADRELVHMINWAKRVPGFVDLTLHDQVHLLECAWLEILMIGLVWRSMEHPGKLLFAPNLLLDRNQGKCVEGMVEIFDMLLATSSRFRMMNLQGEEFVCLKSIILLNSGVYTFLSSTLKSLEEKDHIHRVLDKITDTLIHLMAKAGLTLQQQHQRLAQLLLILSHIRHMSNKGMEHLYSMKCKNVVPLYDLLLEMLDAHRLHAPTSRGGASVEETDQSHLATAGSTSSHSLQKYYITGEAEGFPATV
Assay: Estrogen receptor degradation activity: breast cancer cell ERα in cell western assay (MCF7 cells)
Format: cell-based
Conditions: for % Degradation At 0.3 μM: 4 hours, relative to fulvestrant 0.1 μM positive control; for DC50: 4 hours post compound addition, concentration which degrades 50% of the estrogen receptor, read-out: Degradation IC50
Protocol: Test: Estrogen Receptor Degradation Activity Said test involves measuring the in vitro degradation activity of the compounds of the Table 1a. The measurements of the degradation activities were made using a breast cancer cell ERα in cell western assay as described hereunder. MCF7 cells (ATCC) were seeded in 384 wells microplate (collagen coated) at a concentration of 10000 cells/30 μL per well in red phenol free MEM alpha medium (invitrogen) containing 5% charcoal dextran striped FBS. The following day, 9 points serial 1:5 dilution of each compound was added to the cells in 2.5 μL at final concentrations ranging from […] (in table 2), or 0.1 μM for fulvestrant (using as positive control). At 4 hours post compound addition the cells were fixed by adding 25 μL of formalin (final concentration 5% formalin containing 0.1% triton) for 10 minutes at room temperature and then washed twice with PBS. Then, 50 μL of LI-COR blocking buffer containing 0.1% Triton was added to plate for 30 minutes at room temperature. LI-COR blocking buffer was removed and cells were incubated overnight at cold room with 50 μL anti-ER rabbit monoclonal antibody (Thermo scientific MA1-39540) diluted at 1:1000 in LI-COR blocking buffer containing 0.1% tween-20. Wells which were treated with blocking buffer but no antibody were used as background control. Wells were washed twice with PBS (0.1% tween-20) and incubated at 37° C. for 60 minutes in LI-COR (0.1% tween-20) containing goat anti-rabbit antibody Alexa 488 (1:1000) and Syto-64 a DNA dye (2 μM final concentration). Cells were then washed 3 times in PBS and scanned in ACUMEN explorer (TTP-Labtech). Integrated intensities in the green fluorescence and red fluorescence were measured to determine the levels of ERα and DNA respectively. The degradation activity with respect to estrogen receptors in this test is given by the concentration which degrades 50% of the estrogen receptor (or IC50) in nM. […] DMSO−fulvestrant)).

Row | SMILES | % Degradation At 0.3 μM [%] | DC50 [nM]
1 | COc1cc(C2=C(c3ccc(C=C4CN(CCCF)C4)cc3)c3ccc(C(=O)O)cc3CCC2)cc(C(F)(F)F)c1 [Example 150] | 88 | 1.7
2 | Cc1c(F)ccc(C2=C(c3ccc(C=C4CN(CCC(F)F)C4)cc3)c3ccc(C(=O)O)cc3CCC2)c1C [Example 130, 9-(4-((1-(3,3-difluoropropyl)azetidin-3-ylidene)methyl)phenyl)-8-(4-fluoro-2,3-dimethylphenyl)-6,7-dihydro-5H-benzo[7]annulene-3-carboxylic acid] | 96 | 1.6
3 | O=C(O)c1ccc2c(c1)CCCC(c1cc(F)ccc1C(F)(F)F)=C2c1ccc(C=C2CN(CCCF)C2)cc1 [Example 153, 8-(5-fluoro-2-(trifluoromethyl)phenyl)-9-(4-((1-(3-fluoropropyl)azetidin-3-ylidene)methyl)phenyl)-6,7-dihydro-5H-benzo[7]annulene-3-carboxylic acid] | 92 | 0.5
4 | O=C(O)c1ccc2c(c1)CCCC(c1ccc(F)cc1C(F)(F)F)=C2c1ccc(C=C2CN(CCC(F)(F)F)C2)cc1 [Example 108, 8-(4-fluoro-2-(trifluoromethyl)phenyl)-9-(4-((1-(3,3,3-trifluoropropyl)azetidin-3-ylidene)methyl)phenyl)-6,7-dihydro-5H-benzo[7]annulene-3-carboxylic acid] | 92 | 1.2
5 | COc1ccc(C2=C(c3ccc(C=C4CN(CCCF)C4)cc3)c3ccc(C(=O)O)cc3CCC2)cc1C(F)(F)F [Example 148, 9-(4-((1-(3-fluoropropyl)azetidin-3-ylidene)methyl)phenyl)-8-(4-methoxy-3-(trifluoromethyl)phenyl)-6,7-dihydro-5H-benzo[7]annulene-3-carboxylic acid] | 90 | 1.2
6 | Cc1c(C#N)cccc1C1=C(c2ccc(C=C3CN(CCCF)C3)cc2)c2ccc(C(=O)O)cc2CCC1 [Example 91, 8-(3-cyano-2-methylphenyl)-9-(4-((1-(3-fluoropropyl)azetidin-3-ylidene)methyl)phenyl)-6,7-dihydro-5H-benzo[7]annulene-3-carboxylic acid] | 87 | 0.9
7 | Cc1c(C2=C(c3ccc(C=C4CN(CCC(F)F)C4)cc3)c3ccc(C(=O)O)cc3CCC2)ccc(F)c1F [Example 22, 8-(3,4-difluoro-2-methylphenyl)-9-(4-((1-(3,3-difluoropropyl)azetidin-3-ylidene)methyl)phenyl)-6,7-dihydro-5H-benzo[7]annulene-3-carboxylic acid] | 93 | 0.5
8 | Cl.O=C(O)c1ccc2c(c1)CCCC(c1ccc(C(F)(F)F)cc1)=C2c1ccc(C=C2CN(CCCF)C2)cc1 [Example 185, 9-(4-((1-(3-fluoropropyl)azetidin-3-ylidene)methyl)phenyl)-8-(4-(trifluoromethyl)phenyl)-6,7-dihydro-5H-benzo[7]annulene-3-carboxylic acid hydrochloride] | 90 | 0.5

The next lines start with the values.

Row | % Degradation At 0.3 μM [%] | DC50 [nM] | SMILES
9 | 99 | 0.5 | Cc1cc(F)ccc1C1=C(c2c(C)cc(C=C3CN(CCCF)C3)cc2F)c2ccc(C(=O)O)cc2CCC1.Cl [Example 62, 8-(4-fluoro-2-methylphenyl)-9-(2-fluoro-4-((1-(3-fluoropropyl)azetidin-3-ylidene)methyl)-6-methylphenyl)-6,7-dihydro-5H-benzo[7]annulene-3-carboxylic acid hydrochloride]
10 | 89 | 0.3 | CC(=C1CN(CCCF)C1)c1ccc(C2=C(c3ccc(Cl)cc3Cl)CCCc3cc(C(=O)O)ccc32)cc1 [Example 102, 8-(2,4-Dichlorophenyl)-9-(4-(1-(1-(3-fluoropropyl)azetidin-3-ylidene)ethyl)phenyl)-6,7-dihydro-5H-benzo[7]annulene-3-carboxylic acid]
11 | 92 | 0.5 | Cc1c(C=C2CN(CCCF)C2)ccc(C2=C(c3ccc(Cl)cc3Cl)CCCc3cc(C(=O)O)ccc32)c1F.Cl [Example 74, 8-(2,4-dichlorophenyl)-9-(2-fluoro-4-((1-(3-fluoropropyl)azetidin-3-ylidene)methyl)-3-methylphenyl)-6,7-dihydro-5H-benzo[7]annulene-3-carboxylic acid hydrochloride]
12 | 91 | 0.3 | O=C(O)c1ccc2c(c1)CCCC(c1cc(F)cc(C(F)(F)F)c1)=C2c1ccc(C=C2CN(CCCF)C2)cc1 [Example 155, 8-(3-fluoro-5-(trifluoromethyl)phenyl)-9-(4-((1-(3-fluoropropyl)azetidin-3-ylidene)methyl)phenyl)-6,7-dihydro-5H-benzo[7]annulene-3-carboxylic acid]
13 | 93 | 0.4 | O=C(O)c1ccc2c(c1)CCCC(c1ncc(Cl)cc1C(F)(F)F)=C2c1ccc(C=C2CN(CCCF)C2)cc1 [Example 35, 8-(5-chloro-3-(trifluoromethyl)pyridin-2-yl)-9-(4-((1-(3-fluoropropyl)azetidin-3-ylidene)methyl)phenyl)-6,7-dihydro-5H-benzo[7]annulene-3-carboxylic acid]
14 | 93 | 0.4 | O=C(O)c1ccc2c(c1)CCCC(c1ccc(F)c3c1CCC3)=C2c1ccc(C=C2CN(CCCF)C2)cc1 [Example 12, 8-(7-fluoro-2,3-dihydro-1H-inden-4-yl)-9-(4-((1-(3-fluoropropyl)azetidin-3-ylidene)methyl)phenyl)-6,7-dihydro-5H-benzo[7]annulene-3-carboxylic acid]
15 | 98 | 0.4 | Cc1c(C2=C(c3ccc(C=C4CN(CCCF)C4)cc3)c3ccc(C(=O)O)cc3CCC2)ccc(Cl)c1F [Example 81, 8-(4-chloro-3-fluoro-2-methylphenyl)-9-(4-((1-(3-fluoropropyl)azetidin-3-ylidene)methyl)phenyl)-6,7-dihydro-5H-benzo[7]annulene-3-carboxylic acid]
16 | 98 | 0.2 | Cc1cc(Cl)ccc1C1=C(c2ccc(C=C3CN(CCCF)C3)cc2)c2ccc(C(=O)O)cc2CCC1 [Example 89, 8-(4-chloro-2-methylphenyl)-9-(4-((1-(3-fluoropropyl)azetidin-3-ylidene)methyl)phenyl)-6,7-dihydro-5H-benzo[7]annulene-3-carboxylic acid]
17 | 98 | 0.3 | Cl.O=C(O)c1ccc2c(c1)CCCC(c1ccc(Cl)cc1Cl)=C2c1cc(F)c(C=C2CN(CCCF)C2)cc1F [Example 92, 8-(2,4-dichlorophenyl)-9-(2,5-difluoro-4-((1-(3-fluoropropyl)azetidin-3-ylidene)methyl)phenyl)-6,7-dihydro-5H-benzo[7]annulene-3-carboxylic acid hydrochloride]
18 | 94 | 0.3 | CC(C)CC1=C(c2ccc(C=C3CN(CCCF)C3)cc2)c2ccc(C(=O)O)cc2CCC1 [Example 100, 9-(4-((1-(3-Fluoropropyl)azetidin-3-ylidene)methyl)phenyl)-8-isobutyl-6,7-dihydro-5H-benzo[7]annulene-3-carboxylic acid]
19 | 98 | 0.2 | CCc1cc(F)ccc1C1=C(c2ccc(C=C3CN(CCCF)C3)cc2)c2ccc(C(=O)O)cc2CCC1 [Example 96, 8-(2-ethyl-4-fluorophenyl)-9-(4-((1-(3-fluoropropyl)azetidin-3-ylidene)methyl)phenyl)-6,7-dihydro-5H-benzo[7]annulene-3-carboxylic acid]
20 | 90 | 0.4 | CC1CCc2cc(C(=O)O)ccc2C(c2ccc(C=C3CN(CCCF)C3)cc2)=C1c1ccc(Cl)cc1 (single isomer, unassigned) [Example 184, 8-(4-chlorophenyl)-9-(4-((1-(3-fluoropropyl)azetidin-3-ylidene)methyl)phenyl)-7-methyl-6,7-dihydro-5H-benzo[7]annulene-3-carboxylic acid]
